Laboratory results as given in US12492367B2, “Sensor chip capable of culturing cells and of analyzing cell-derived substance, and cell activity quantitative analysis method using the same” (AJOU UNIVERSITY INDUSTRY-ACADEMIC COOPERATION FOUNDATION, priority 2020, dated 2025).

Legend:
RAW 264.7 cells [1] = assay: Observation of cell shape change of RAW 264.7 cells after PMA treatment in the sensor chip; assay type: cell-based, murine; conditions: 16 μM PMA added to culturing liquid; RAW 264.7 cells adhered after 24 hours culture; FIGS. 4-1 and 4-2
Description: (§1) After introducing the sensor chip into an autoclave, the sensor chip was autoclaved at a temperature of 120° C. for […]. Thereafter, RAW 264.7 cells as a murine macrophage cell line were inoculated into a cell culturing compartment containing the culturing liquid of the sterilized sensor chip, and then were cultured for 24 hours to adhere the cells to a surface of the culturing compartment. In this regard, Dulbecco's modified eagle medium (DMEM), 10% fetal bovine serum, and 5% penicillin streptomycin were added to the culturing liquid, and then culturing of the cells was carried out at 37° C., and under a 5% CO2 concentration condition.
(§2) After identifying that the cells were adhered to the surface of the culturing compartment, 16 μM of PMA was added to the culturing liquid to chemically activate the cells, and change in the cell shape was observed (FIGS. 4-1 and 4-2). In this regard, PMA used as the chemical stimulant acts as a strong tumor promoter and is a chemical that induces cell growth, differentiation, and immune response when the PMA is added to the culturing liquid. When the external stimulating substance such as the PMA is added to the culturing liquid, the immune cells recognize the external stimulating substance as an external stimulus such that the activation of the cells is induced.

RAW 264.7 cells [2] = assay: Cyclic voltammetry measurement of hydrogen peroxide secreted into the cell culturing liquid after PMA treatment (HRP carbon paste work electrode); assay type: cell-based, murine; conditions: 16 μM PMA; CV 0 V to −1 V, reduction current at −400 mV; calibration curve; FIG. 4-6
Description: as §1
as §2, with “When the external stimulating substance such as the PMA is added to the culturing liquid, the immune cells recognize the external stimulating substance as an external stimulus such that the activation of the cells is induced.” left out
For this purpose, a calibration curve (FIG. 4-5) was obtained based on the CV results measured while hydrogen peroxide having varying concentrations was added to the cell culturing liquid. […]

CCCCCCCCCCCCCC(=O)O[C@@H]1[C@@H](C)[C@@]2(O)[C@@H](C=C(CO)C[C@]3(O)C(=O)C(C)=C[C@@H]23)[C@@H]2C(C)(C)[C@]12OC(C)=O [PMA, phorbol 12-myristate 13-acetate]
change in the cell shape after the PMA treatment (RAW 264.7 cells [1]): cell shape changed into an atypical shape | concentration of hydrogen peroxide secreted from the cells over time after the PMA treatment (RAW 264.7 cells [2]): concentration of hydrogen peroxide secreted from the cells also increases
